From patent US11718585B2, “Bis-cyclic guanidines as antibacterial agents” (University of South Florida, priority 2017, dated 2023)

Key:
six bacteria strains = assay: MIC, summary statements over the panel of tested bacteria; format: cell-based
Experimental: (§1) Minimum Inhibitory Concentrations (MICs) against Bacteria. The antimicrobial activity of the compounds was tested on the following six bacteria strains: K. pneumoniae (ATCC 13383), P. aeruginosa (ATCC27853), E. coli (ATCC 25922), vancomycin-resistant Enterococcus faecalis (ATCC 700802), Methicillin-resistant S. aureus (MRSA, ATCC 33591), Methicillin-resistant S. epidermidis (MRSE, RP62A). The procedures were followed as reported previously (Hancock et al., Immunobiology 2006, 211, 315-322). Briefly, a single colony of each bacterium was inoculated in 3 mL TSB medium and incubated overnight at 37° C. Then the bacteria culture was diluted at 1:100 and the bacteria were allowed to grow to mid-logarithmic phase. Next, 50 μL of 2-fold serial dilutions of compounds (0.1-25 μg/mL) were added the 96-well plate containing aliquots of 50 μL of bacteria suspension (1×10^6 CFU/mL) in each well. The mixture was incubated at 37° C. for 16 h, and their absorption at 600 nm wavelength was read on a Biotek Synergy HT microtiter plate reader. […] The experiments were repeated at least three times with duplicates each time. HC50 means the concentration causing 50% hemolysis.

E. coli [1] = assay: Time-kill study; format: cell-based; conditions: for time to completely remove/kill all bacteria: 12.5 μg/mL
Experimental: The killing activity was monitored for the first 2 h. The concentrations for compound 11 were 2×MIC, 4×MIC, and 8×MIC, respectively.
Time-kill studies were conducted to investigate the bacterial killing kinetics of compounds 11 and 12 by using E. Coli. Briefly, the bacteria […] grew to mid-logarithmic phase in TSB medium, from which the suspension (10^6 CFU/ml) was made. The suspension was incubated with different concentrations of 11 or 12 for 10 min, 30 min, 1 h and 2 h respectively. The mixtures were diluted by 10^2 to 10^4 fold and spread on TSB agar plates. After incubation at 37° C. overnight, the colonies on the plates were counted and plotted against the incubation time. […] Cell colonies were counted in agar plates at 12.5, 25, and 50 μg/mL. Compound 11 at the concentration of 12.5 or 25 μg/mL completely removed all bacteria in 2 hours, and at 50 μg/mL it completely removed bacteria in 0.5 hour. Compound 12 killed E. Coli completely in 0.5 hour at the concentration of 12.5 μg/mL.

S. aureus = assay: Fluorescence microscopy (DAPI/PI) of bacterial membranes, S. aureus; format: cell-based; conditions: 10 μg/mL, 2 h
Experimental: (§2) Fluorescence microscopy studies were conducted to evaluate the ability of compound 12 to compromise membranes of S. aureus (Gram-positive bacterium) and E. coli (Gram-negative bacterium). Fluorescent agent 4′,6-diamidino-2-phenylindole (DAPI) was used to stain membranes of bacterial cells with blue fluorescence regardless of cell viability, and the red fluorescence of propidium iodide (PI) due to the DNA intercalation was used to stain impaired membranes. After MRSA and E. Coli grew to mid-logarithmic phase, the compound 12 was incubated with the bacteria at 37° C. for 2 h. The mixture was then centrifuged at 5000 rpm for 15 min. The cell pellets were washed with the PBS buffer for three times, and incubated with PI (5 μg/mL) and DAPI (10 μg/mL) for 15 min sequentially on ice in the dark. The mixture was then centrifuged and the pellets were washed with the PBS buffer. Next, 10 μL of the samples were placed on chamber slides and observed under Zeiss Axio Image Zloptical microscope using 100× oil-immersion objective.

MRSA = assay: Drug-resistance study, 14 passages, MRSA; format: cell-based, S. aureus; conditions: incubated at ½ MIC every day
Experimental: (§3) Bacterial resistance tests were conducted using compound 12. The compound was incubated with either MRSA or E. Coli in the well at the concentration of half-MIC (½ MIC, 10^6 CFU/ml) every day and tested for their activity through 14 successive passages.

E. coli [2] = assay: Drug-resistance study, 14 passages, E. coli; format: cell-based; conditions: incubated at ½ MIC every day
Experimental: as §3

E. coli [3] = assay: Fluorescence microscopy (DAPI/PI) of bacterial membranes, E. coli; format: cell-based; conditions: 10 μg/mL, 2 h
Experimental: as §2

[4] = system: P. aeruginosa (ATCC27853); assay: MIC against P. aeruginosa; format: cell-based
Experimental: as §1

E. coli (ATCC 25922) = assay: Minimum inhibitory concentration (MIC) against E. coli; format: cell-based; conditions: Escherichia coli, ATCC25922; Gram −; 16 h, 37° C.
Experimental: as §1

[5] = system: Methicillin-resistant S. aureus (MRSA, ATCC 33591); assay: MIC against MRSA; format: cell-based; conditions: Staphylococcus aureus; Gram +; 16 h, 37° C.
Experimental: as §1

[6] = system: K. pneumoniae (ATCC 13383); assay: MIC against K. pneumoniae; format: cell-based; conditions: Klebsiella pneumoniae, ATCC13383; Gram −; 16 h, 37° C.
Experimental: as §1

[7] = system: human red blood cells (hRBCs); assay: Hemolytic assay; format: cell-based; conditions: concentration causing 50% hemolysis, 37° C., 1 h
Experimental: Hemolytic assays. The freshly drawn, K2EDTA treated human red blood cells (hRBCs) were washed with 1×PBS buffer, and centrifuged at 3500 rpm for 10 min. The step was repeated until the supernatant became clear. The supernatant was removed, and the RBCs were diluted into 5% v/v suspension. 50 μL of the suspension was incubated with 50 μL of compounds of different concentrations at 37° C. for 1 h. The mixture was centrifuged at 3500 rpm for 10 min. Subsequently, to 30 μL of the supernatant 100 μL PBS was added, and the absorbance of the mixture at 540 nm was read on a Biotek Synergy HT plate reader. The positive control was 2% Triton X-100, and the negative control was 1×PBS alone. The hemolysis activity was calculated by the formula % hemolysis=(Abssample−AbsPBS)/(AbsTriton−AbsPBS)×100%. The experiment was repeated at least three times with duplicates each time.

[8] = system: vancomycin-resistant Enterococcus faecalis (ATCC 700802); assay: MIC against VRE; format: cell-based; conditions: Gram +; 16 h, 37° C.
Experimental: as §1

[9] = system: Methicillin-resistant S. epidermidis (MRSE, RP62A); assay: MIC against MRSE; format: cell-based; conditions: Staphylococcus epidermidis, Gram +, 16 h, 37° C.
Experimental: as §1

Structure (SMILES): N#CNc1cccc(NC(=O)CN2C[C@H](Cc3ccccc3)N(CCCc3ccccc3)C2=N)c1 [Compound 7]
- antibacterial activity against the tested bacteria (in words) (six bacteria strains): negligible activity

Structure (SMILES): N=C1N(CC(=O)Nc2cccc(NC(N)=O)c2)C[C@H](Cc2ccccc2)N1CCCc1ccccc1 [Compound 8]
- antibacterial activity against the tested bacteria (in words) (six bacteria strains): negligible activity

Structure (SMILES): CCCCCCN1C(=N)N(CC(=O)Nc2ccc(NC(=O)CN3C[C@H](Cc4ccccc4)N(CCCCCC)C3=N)cc2)C[C@@H]1Cc1ccccc1 [Compound 11]
- time to completely remove/kill all bacteria (E. coli [1]): 2 h
- time to completely remove bacteria (E. coli [1]; 50 μg/mL): 0.5 h
- antibacterial activity against the tested bacteria (in words) (six bacteria strains): potent and broad-spectrum activity

Structure (SMILES): CCCCCCN1C(=N)N(CC(=O)Nc2cccc(NC(=O)CN3C[C@H](Cc4ccccc4)N(CCCCCC)C3=N)c2)C[C@@H]1Cc1ccccc1 [Compound 12]
- time to completely remove/kill all bacteria (E. coli [1]): 0.5 h
- membrane disruption (red fluorescence under the PI channel) (S. aureus): membranes of these bacteria were disrupted
- antibacterial activity against the tested bacteria (in words) (six bacteria strains): potent and broad-spectrum activity
- MIC after 14 passages (MRSA): virtually constant
- MIC after 14 passages (E. coli [2]): virtually constant
- membrane disruption (red fluorescence under the PI channel) (E. coli [3]): membranes of these bacteria were disrupted

Structure (SMILES): CCCCCCN1C(=N)N(CC(=O)NCCCCNC(=O)CN2C[C@H](Cc3ccccc3)N(CCCCCC)C2=N)C[C@@H]1Cc1ccccc1 [Compound 13]
- activity against P. aeruginosa (in words) [4]: reduced activity
- MIC (E. coli (ATCC 25922)): 0.75 to 1.5 µg/mL

Structure (SMILES): CCCCCCN1C(=N)N(CC(=O)NCCCCCCNC(=O)CN2C[C@H](Cc3ccccc3)N(CCCCCC)C2=N)C[C@@H]1Cc1ccccc1 [Compound 14]
- activity against P. aeruginosa (in words) [4]: reduced activity

Structure (SMILES): CCCCCCN1C(=N)N(CC(=O)NCCCCCCCCNC(=O)CN2C[C@H](Cc3ccccc3)N(CCCCCC)C2=N)C[C@@H]1Cc1ccccc1 [Compound 15]
- activity against P. aeruginosa (in words) [4]: reduced activity

Structure (SMILES): CCCCCCN1C(=N)N(CC(=O)NCCCOCCOCCOCCCNC(=O)CN2C[C@H](Cc3ccccc3)N(CCCCCC)C2=N)C[C@@H]1Cc1ccccc1 [Compound 16]
- MIC [5]: 0.75 µg/mL
- MIC [6]: > 25 µg/mL
- MIC ([4]; Pseudomonas aeruginosa, ATCC27853, Gram −, 16 h, 37° C.): > 25 µg/mL
- Hemolysis (HC50) [7]: 200 µg/mL
- MIC [8]: 6 to 12 µg/mL
- MIC (E. coli (ATCC 25922)): 1.5 to 3 µg/mL
- MIC [9]: 1.5 µg/mL
- antibacterial activity against the tested bacteria (in words) (six bacteria strains): reduced activity

Structure (SMILES): CCCCCCCCN1C(=N)N(CC(=O)Nc2ccc(NC(=O)CN3C[C@H](Cc4ccccc4)N(CCCCCCCC)C3=N)cc2)C[C@@H]1Cc1ccccc1 [Compound 17]
- antibacterial activity against the tested bacteria (in words) (six bacteria strains): decreased activity

Structure (SMILES): CCCCCCCCN1C(=N)N(CC(=O)Nc2cccc(NC(=O)CN3C[C@H](Cc4ccccc4)N(CCCCCCCC)C3=N)c2)C[C@@H]1Cc1ccccc1 [Compound 18]
- antibacterial activity against the tested bacteria (in words) (six bacteria strains): decreased activity

Structure (SMILES): CCCCCCN1C(=N)N(CC(=O)Nc2cccc(NC(=O)CN3C[C@H](CC(C)C)N(CCCCCC)C3=N)c2)C[C@@H]1CC(C)C [Compound 23]
- MIC [5]: 0.75 to 1.5 µg/mL
- antibacterial activity against the tested bacteria (in words) (six bacteria strains): slightly less effective
